# Experimental data taken from patent publication US6797698B1, “Method of treating prolonged critical illness and other conditions having a similar neuroendocrine pattern” (K.U. Leuven Research & Development, priority 1998, dated 2004).
# Assays:
# [1] = test system: TSH secretion and thyroid hormone levels; assay: 21 h (21-45 h) infusion in protracted critical illness: TSH secretion and thyroid hormones; format: in vivo, human; conditions: 21 h infusion
# [2] = test system: GH secretion and GH-dependent parameters; assay: 21 h (21-45 h) infusion in protracted critical illness: GH secretion and GH-dependent parameters; format: in vivo, human
# Procedure: The inventors have also shown that infusion of GHRP-2 for 21 h in this condition increases pulsatile GH secretion >6-fold, associated with increases in IGF-I, IGFBP-3 and ALS. […] This observation strongly favors the presence of active feedback inhibition preventing overcorrection of the somatotropic axis with this strategy. Treatment with high doses of recombinant human GH has recently shown to increase morbidity and mortality of critical illness. The inability to overtreat with GH-secretagogues is an important advantage over exogenous GH, especially in the vulnerable critically ill elderly.
# catabolism = assay: LHRH effect on catabolism resulting from testosterone deficiency; conditions: in vivo
# Text: Optionally the administration of GHRP and TRH can be supplemented with Luteinizing Hormone Releasing Hormone (LHRH). A shortage of pulsatile LH secretion can lead to testosterone deficiency in males, which in turn can cause an increase in catabolism.
compound,measurement,setting,value
"NC(=O)[C@@H]1CCCN1C(=O)[C@H](Cc1cnc[nH]1)NC(=O)[C@@H]1CCC(=O)N1 [TRH, Thyroid Releasing Hormone]",TSH secretion (in words),[1],increasing
same,thyroid hormone levels (in words),[1],increasing
same,GH-dependent parameters (in words),[2]; 21 h infusion,did not alter
GHRP-2,ALS (in words),[2]; infusion for 21 h,increases
same,IGF-I (in words),[2]; infusion for 21 h,increases
same,IGFBP-3 (in words),[2]; infusion for 21 h,increases
same,increase in pulsatile GH secretion,[2]; infusion for 21 h,> 6 fold
"Luteinizing Hormone Releasing Hormone (QHWSYGLRPG; Gonadoliberin-1; UniProt P01148 24-33, looked up) [LHRH, Luteinizing Hormone Releasing Hormone, optional supplement to GHRP and TRH]",effect on catabolism that results from testosterone deficiency (in words),catabolism,no effect
